Measurements: ChEMBL document CHEMBL1201862, “PubChem BioAssay data set” (2004)
The source made the active and inactive calls.

Columns and labels:
[1] = molecular target: T1, Protein Tat (Human immunodeficiency virus type 1 group M subtype B (isolate HXB2)(HIV-1), UniProt P04608); type: functional;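 also: tat binding to TAR RNA read out by fluorescence polarization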
T1 sequence (P04608 whole entry): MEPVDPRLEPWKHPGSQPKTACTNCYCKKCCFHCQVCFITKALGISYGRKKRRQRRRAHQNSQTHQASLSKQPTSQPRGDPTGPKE

[2] = molecular target: T2, Short transient receptor potential channel 4 (Mus musculus, UniProt Q9QUQ5); assay: calcium entry via TRPC4 opening agents – cell-based, HEK293 TRPC4/mu-opioid, Fluo-4 calcium, dose response (AID 434937); type: functional
T2 sequence (Q9QUQ5 whole entry): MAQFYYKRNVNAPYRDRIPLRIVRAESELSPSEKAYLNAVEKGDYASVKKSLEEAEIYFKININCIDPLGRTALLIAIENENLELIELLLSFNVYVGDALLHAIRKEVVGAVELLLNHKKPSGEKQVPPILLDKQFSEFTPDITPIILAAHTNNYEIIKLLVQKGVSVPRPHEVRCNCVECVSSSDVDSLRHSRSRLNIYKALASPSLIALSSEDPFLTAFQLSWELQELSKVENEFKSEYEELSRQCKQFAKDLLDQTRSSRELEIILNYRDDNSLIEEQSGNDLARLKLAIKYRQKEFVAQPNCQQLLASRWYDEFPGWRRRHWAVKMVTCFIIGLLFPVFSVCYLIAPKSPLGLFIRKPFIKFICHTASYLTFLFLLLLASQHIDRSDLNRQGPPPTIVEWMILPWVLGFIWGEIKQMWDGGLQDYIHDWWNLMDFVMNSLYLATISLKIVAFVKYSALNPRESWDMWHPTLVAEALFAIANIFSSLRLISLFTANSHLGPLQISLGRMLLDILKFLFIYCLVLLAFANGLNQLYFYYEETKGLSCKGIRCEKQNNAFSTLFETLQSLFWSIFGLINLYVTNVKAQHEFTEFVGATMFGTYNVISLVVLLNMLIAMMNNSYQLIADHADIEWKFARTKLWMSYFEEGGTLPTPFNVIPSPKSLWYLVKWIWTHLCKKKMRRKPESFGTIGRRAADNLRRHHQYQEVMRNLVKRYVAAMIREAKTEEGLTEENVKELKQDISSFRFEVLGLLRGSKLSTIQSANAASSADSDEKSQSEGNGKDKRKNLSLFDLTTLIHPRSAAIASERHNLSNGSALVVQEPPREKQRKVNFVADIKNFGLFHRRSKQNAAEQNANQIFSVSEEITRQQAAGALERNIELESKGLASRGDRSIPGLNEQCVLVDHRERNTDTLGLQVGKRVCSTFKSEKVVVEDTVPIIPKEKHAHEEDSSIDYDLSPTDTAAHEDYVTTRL

[3] = A cytotoxicity screen of small molecule inhibitors of the PhoP region in Salmonella typhi identified in the primary screen. [Related pubchem assays: 1850, 1864, 1985 ]; type: functional
[4] = molecular target: Estrogen receptor beta (Homo sapiens, UniProt Q92731);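 also: recombinant ER-beta bound to coactivator SRC1 peptide in presence of estradiol agonist; inhibitors block coactivator peptide binding and lower the FRET signal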
Chain of Estrogen receptor beta (Q92731 whole entry): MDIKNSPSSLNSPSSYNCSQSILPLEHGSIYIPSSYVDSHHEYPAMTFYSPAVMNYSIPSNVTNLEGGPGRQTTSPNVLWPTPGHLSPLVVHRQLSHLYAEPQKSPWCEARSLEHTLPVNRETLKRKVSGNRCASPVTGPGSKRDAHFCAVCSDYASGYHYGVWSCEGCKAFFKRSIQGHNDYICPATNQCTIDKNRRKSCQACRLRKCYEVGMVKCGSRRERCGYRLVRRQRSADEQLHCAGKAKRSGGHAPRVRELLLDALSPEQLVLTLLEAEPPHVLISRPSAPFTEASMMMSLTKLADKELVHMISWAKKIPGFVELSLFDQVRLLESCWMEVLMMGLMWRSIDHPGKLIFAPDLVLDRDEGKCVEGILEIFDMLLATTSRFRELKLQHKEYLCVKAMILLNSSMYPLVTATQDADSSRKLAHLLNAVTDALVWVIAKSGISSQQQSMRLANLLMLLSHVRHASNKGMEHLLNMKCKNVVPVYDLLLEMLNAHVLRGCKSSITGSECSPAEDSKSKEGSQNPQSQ

[5] = molecular target: Nonstructural protein 1 (Influenza A virus, UniProt Q194T2); type: functional, Influenza A virus (A/California/07/2009(H1N1))
Chain of Nonstructural protein 1 (Q194T2 whole entry): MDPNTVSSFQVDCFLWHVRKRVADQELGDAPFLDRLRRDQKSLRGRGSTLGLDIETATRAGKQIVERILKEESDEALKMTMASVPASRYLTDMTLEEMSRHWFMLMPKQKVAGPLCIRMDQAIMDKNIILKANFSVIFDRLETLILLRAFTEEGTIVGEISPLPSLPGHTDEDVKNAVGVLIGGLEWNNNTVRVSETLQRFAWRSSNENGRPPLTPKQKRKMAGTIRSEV

[6] = cells; type: functional, cell-based
[7] = molecular target: T3, RNA-binding protein pos-1 (Caenorhabditis elegans, UniProt G5EF15); assay: disruptors of C. elegans POS-1 RNA interaction – biochemical, fluorescence polarization, dose response (AID 1964);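 also: purified POS-1 fused to maltose binding protein made in E. coli; potency of compounds blocking POS-1 binding to fluorescent RNA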
T3 sequence (G5EF15 whole entry): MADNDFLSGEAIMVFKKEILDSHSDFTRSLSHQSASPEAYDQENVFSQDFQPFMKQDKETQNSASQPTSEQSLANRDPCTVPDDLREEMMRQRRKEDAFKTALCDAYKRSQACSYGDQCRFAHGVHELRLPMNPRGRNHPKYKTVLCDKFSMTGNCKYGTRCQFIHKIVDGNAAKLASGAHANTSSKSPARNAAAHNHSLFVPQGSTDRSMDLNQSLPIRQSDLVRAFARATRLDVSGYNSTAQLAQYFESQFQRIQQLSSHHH

[8] = molecular target: T4, Zinc finger protein mex-5 (Caenorhabditis elegans, UniProt Q9XUB2); assay: potency of MEX-5 RNA-binding blockers – biochemical, C. elegans, fluorescence polarization, dose response (AID 1960)
T4 sequence (Q9XUB2 whole entry): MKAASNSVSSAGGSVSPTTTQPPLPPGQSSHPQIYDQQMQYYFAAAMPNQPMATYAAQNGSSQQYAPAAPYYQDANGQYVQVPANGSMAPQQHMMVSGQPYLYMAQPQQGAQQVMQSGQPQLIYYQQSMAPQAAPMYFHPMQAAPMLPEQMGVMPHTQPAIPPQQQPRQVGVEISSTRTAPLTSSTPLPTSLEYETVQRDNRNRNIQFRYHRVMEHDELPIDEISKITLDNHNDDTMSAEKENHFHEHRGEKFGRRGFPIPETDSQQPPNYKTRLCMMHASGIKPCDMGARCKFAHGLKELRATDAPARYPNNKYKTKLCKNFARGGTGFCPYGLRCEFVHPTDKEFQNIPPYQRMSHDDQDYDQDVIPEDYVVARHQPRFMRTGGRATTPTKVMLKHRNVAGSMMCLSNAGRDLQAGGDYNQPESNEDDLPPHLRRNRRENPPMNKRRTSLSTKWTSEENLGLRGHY

[9] = cells; type: functional, cell-based; remark: listed apart in the source
[10] = molecular target: T5, Carboxy-terminal domain RNA polymerase II polypeptide A small phosphatase 1 (Homo sapiens, UniProt Q9GZU7); assay: CTDSP1 inhibitors, concentration-response, biochemical, absorbance readout, ultra-high-throughput screen actives (AID 540297); type: functional
T5 sequence (Q9GZU7 whole entry): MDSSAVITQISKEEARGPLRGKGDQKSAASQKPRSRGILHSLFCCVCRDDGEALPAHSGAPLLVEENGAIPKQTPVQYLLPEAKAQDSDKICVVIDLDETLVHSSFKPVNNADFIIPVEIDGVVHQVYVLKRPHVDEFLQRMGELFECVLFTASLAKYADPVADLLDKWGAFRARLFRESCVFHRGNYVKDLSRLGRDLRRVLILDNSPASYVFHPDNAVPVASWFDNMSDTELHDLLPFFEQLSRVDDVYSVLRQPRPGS

[11] = molecular target: T6, Histone-lysine N-methyltransferase NSD2 (Homo sapiens, UniProt O96028); type: biochemical
T6 sequence (O96028 whole entry): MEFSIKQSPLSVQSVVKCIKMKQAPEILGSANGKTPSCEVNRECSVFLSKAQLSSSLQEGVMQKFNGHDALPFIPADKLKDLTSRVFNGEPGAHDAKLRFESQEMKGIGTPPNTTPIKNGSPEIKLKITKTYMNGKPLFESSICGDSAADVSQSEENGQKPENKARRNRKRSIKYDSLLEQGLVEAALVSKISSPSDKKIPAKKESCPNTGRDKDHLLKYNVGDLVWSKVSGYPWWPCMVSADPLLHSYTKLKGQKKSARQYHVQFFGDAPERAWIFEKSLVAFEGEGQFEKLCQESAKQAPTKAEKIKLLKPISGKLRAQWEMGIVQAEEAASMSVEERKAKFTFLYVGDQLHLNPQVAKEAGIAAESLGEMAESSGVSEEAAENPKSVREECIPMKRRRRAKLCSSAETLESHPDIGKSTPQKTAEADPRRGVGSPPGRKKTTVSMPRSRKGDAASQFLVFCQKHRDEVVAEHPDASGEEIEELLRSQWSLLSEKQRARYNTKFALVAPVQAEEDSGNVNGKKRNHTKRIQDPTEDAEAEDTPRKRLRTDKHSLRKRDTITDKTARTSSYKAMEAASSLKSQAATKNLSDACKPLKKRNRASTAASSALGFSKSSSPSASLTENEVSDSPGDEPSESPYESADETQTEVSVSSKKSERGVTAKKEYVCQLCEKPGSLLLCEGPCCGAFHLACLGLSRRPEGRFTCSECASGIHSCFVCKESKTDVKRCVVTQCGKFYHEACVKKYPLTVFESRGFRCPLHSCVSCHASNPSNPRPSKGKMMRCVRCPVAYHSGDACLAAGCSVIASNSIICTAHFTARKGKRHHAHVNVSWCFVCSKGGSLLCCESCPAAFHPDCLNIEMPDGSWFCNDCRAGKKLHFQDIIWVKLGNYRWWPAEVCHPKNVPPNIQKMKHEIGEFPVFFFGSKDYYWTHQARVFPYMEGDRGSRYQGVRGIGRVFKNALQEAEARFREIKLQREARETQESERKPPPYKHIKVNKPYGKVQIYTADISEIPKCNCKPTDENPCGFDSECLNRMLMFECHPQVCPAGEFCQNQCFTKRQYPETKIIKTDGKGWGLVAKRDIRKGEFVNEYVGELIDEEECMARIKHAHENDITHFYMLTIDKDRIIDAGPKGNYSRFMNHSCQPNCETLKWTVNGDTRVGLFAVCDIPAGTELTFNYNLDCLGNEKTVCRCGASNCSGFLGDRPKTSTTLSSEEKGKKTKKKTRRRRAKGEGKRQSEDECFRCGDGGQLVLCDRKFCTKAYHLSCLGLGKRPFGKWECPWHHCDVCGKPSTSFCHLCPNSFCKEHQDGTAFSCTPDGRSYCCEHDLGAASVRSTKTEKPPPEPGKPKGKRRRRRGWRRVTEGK

[12] = molecular target: T7, Hexokinase (Trypanosoma brucei, UniProt Q38C41); assay: Confirmation assay for inhibitors of Trypanosoma brucei hexokinase 1-Analogue-first series. [Related pubchem assays (depositor defined):AID1430, AID1632, AID2516, AID2560, AID2579, AID2600, AID449725, AID492951]; type: functional
T7 sequence (Q38C41 whole entry): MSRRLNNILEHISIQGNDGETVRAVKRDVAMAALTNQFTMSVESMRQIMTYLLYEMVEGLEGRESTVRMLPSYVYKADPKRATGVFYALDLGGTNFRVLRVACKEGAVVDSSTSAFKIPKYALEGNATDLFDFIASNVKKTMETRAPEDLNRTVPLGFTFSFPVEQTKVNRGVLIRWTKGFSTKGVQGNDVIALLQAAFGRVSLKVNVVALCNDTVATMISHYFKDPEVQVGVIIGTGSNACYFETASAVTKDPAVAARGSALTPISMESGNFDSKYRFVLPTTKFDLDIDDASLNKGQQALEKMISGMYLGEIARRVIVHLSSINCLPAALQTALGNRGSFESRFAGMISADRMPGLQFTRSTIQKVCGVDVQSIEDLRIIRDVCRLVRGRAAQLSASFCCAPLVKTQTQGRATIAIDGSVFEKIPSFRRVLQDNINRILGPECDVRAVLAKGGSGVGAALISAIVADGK

[13] = OVCAR8 cell viability loss – plate reader, dry powder samples, PAX8 project, dose response (AID 743197); type: functional, cell-based; details: OVCAR-8
[14] = molecular target: Paired box protein Pax-8 (Homo sapiens, UniProt Q06710); assay: PAX8 transcriptional activity inhibition in RMG-I – RMG-I cells, luciferase, cherry-pick, dose response (AID 687027); type: functional, cell-based;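 also: luciferase reporter driven by Pax8 target thyroperoxidase promoter measured by SteadyGlo luminescence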
Chain of Paired box protein Pax-8 (Q06710 whole entry): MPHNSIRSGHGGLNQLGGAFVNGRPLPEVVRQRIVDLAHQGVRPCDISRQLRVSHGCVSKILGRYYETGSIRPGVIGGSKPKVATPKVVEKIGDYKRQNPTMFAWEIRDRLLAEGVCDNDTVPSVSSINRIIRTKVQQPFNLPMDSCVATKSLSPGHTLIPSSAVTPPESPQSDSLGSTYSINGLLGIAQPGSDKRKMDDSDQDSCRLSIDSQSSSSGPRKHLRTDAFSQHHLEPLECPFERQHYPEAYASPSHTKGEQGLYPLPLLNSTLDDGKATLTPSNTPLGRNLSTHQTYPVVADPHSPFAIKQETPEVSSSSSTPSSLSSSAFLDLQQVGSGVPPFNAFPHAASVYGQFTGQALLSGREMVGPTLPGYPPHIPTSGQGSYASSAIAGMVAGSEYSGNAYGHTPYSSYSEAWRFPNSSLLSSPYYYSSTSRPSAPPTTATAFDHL

[15] = molecular target: Cytochrome P450 2C19 (Homo sapiens, UniProt P33261); assay: Cytochrome panel assay with activity outcomes. Panel member name: p450-cyp2c19 Compounds with AC50 equal or less than 10 uM are considered active; type: functional; details: read-out: AC50
Chain of Cytochrome P450 2C19 (P33261 whole entry): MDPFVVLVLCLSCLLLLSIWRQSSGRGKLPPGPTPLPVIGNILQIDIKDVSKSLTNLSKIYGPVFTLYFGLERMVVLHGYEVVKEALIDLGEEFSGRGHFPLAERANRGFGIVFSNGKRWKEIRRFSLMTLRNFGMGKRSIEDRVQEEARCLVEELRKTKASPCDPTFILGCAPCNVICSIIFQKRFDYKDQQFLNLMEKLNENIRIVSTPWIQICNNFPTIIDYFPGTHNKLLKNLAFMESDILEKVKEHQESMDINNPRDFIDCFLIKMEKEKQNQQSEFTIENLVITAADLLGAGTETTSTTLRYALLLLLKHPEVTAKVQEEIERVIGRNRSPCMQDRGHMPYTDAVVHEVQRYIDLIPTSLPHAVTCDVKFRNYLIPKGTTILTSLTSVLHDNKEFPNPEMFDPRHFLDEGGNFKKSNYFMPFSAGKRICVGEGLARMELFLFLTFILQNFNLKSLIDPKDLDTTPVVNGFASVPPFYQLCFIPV

CCc1ccc2nc(N3CCN(C)CC3)c(C#N)cc2c1
IC50 [1]: > 100 µM (active)

CCN(CC)c1ccc(/C=C/[N+](=O)[O-])cc1
EC50 [2]: 2.99 µM (active)

COc1ccc(-c2nnc(SC(C)C(=O)Nc3nccs3)n2Cc2ccccc2)cc1OC (stereo not given)
EC50 [3]: > 50 µM (active)

Cc1nccn1-c1ncnc2sc3c(c12)CCCC3
IC50 [4]: > 50 µM (not active)

CCN1C(c2ccccc2)=C(c2ccccc2)S/C1=C/C=C1\SC(=S)N(C)C1=O
IC50 [5]: 7.78 µM (active)

O=C(O)c1cccc(-n2cccc2/C=C2/SC(=O)N(CC(=O)N3CCCC3)C2=O)c1
EC50 [6]: > 350 µM (not active) | EC50 [7]: > 300 µM (not active) | EC50 [8]: > 300 µM (not active) | EC50 [9]: > 350 µM (not active) | IC50 [10]: 5.53 µM (active) | AC50 [11]: > 20 µM (inactive)

COc1ccc(CC(=O)NCC(c2ccc(OC)cc2)N(C)C)cc1 (stereo not given)
EC50 [2]: 0.668 µM (active)

O=C1[C@@H]2C(Cc3ccc(O)cc3)NC3(C(=O)Nc4ccc(F)cc43)[C@@H]2C(=O)N1c1ccc(F)cc1 (stereo not given in full)
IC50 [1]: > 100 µM (active)

CC(C(=O)NC1CCS(=O)(=O)C1)N1C(=O)/C(=C/c2ccc(Cl)cc2)SC1=S (stereo not given)
EC50 [3]: > 50 µM (active)

N=c1c(C(=O)NCC2CCCO2)cc2c(=O)n3ccccc3nc2n1Cc1ccc(Cl)cc1 (stereo not given)
EC50 [3]: > 50 µM (active)

COC(=O)c1ccc(N2CCN(C)CC2)c(NC(=O)c2ccc(Br)o2)c1
EC50 [2]: 5.96 µM (active)

CN1CC(C(=O)c2ccc(Cl)cc2)C(c2ccc(N(C)C)cc2)C1 (stereo not given)
IC50 [5]: 43.8 µM (active)

[O-][n+]1c2ccccc2cc2ccccc21
EC50 [3]: > 50 µM (active)

Brc1ccc2nc(-c3c[nH]c4ccccc34)cn2c1
EC50 [3]: > 50 µM (active)

O=C(Nc1ccc(O)cc1C(=O)O)c1ccc2c(c1)C(=O)N(Cc1ccco1)C2=O
IC50 [4]: 13.8 µM (active)

Cc1ccc(C(=O)Nc2cc(Cl)ccc2C(=O)O)cc1
IC50 [12]: 13.8 µM (active)

C=C(C)c1ccc(C(=O)Nc2cc(Cl)ccc2C(=O)O)cc1
IC50 [12]: 7.16 µM (active)

Cn1sc(=O)c2ccccc21
IC50 [12]: > 25 µM (inactive)

C[C@H]1CCCCO[C@H](CN(C)C(=O)Nc2ccc(C(F)(F)F)cc2)[C@@H](C)CN([C@@H](C)CO)C(=O)c2cc(NS(=O)(=O)c3ccc(F)cc3)ccc2O1
AC50 [13]: > 70 µM (inactive) | AC50 [14]: 4.63 µM (active)

C[C@@H]1CN([C@@H](C)CO)C(=O)Cc2cc(NC(=O)Nc3ccc(C(F)(F)F)cc3)ccc2O[C@H]1CN(C)C(=O)Nc1ccc(C(F)(F)F)cc1
AC50 [13]: > 70 µM (inactive) | AC50 [14]: 8.87 µM (active)

COC(=O)c1ccc(Cl)cc1NC(=O)c1ccc(OC)cc1
IC50 [12]: > 25 µM (inactive)

O=C(N/N=C/c1ccccn1)c1ccc(Br)o1
AC50 [15]: 35.5 µM (inconclusive) | EC50 [3]: > 50 µM (active)
